The test system of assay [1] is ovalbumin (OVA)-induced asthma. Put plainly: Mouse model of ovalbumin (OVA)-induced asthma (Penh, eosinophil infiltrate in BALF). It counts as in vivo. The conditions noted are these: for decrease of eosinophil infiltration in BAL: three oral doses of 10 mg/kg at 48 h, 24 h, and 1 h prior to assessment. Here is the method:
A mouse model of ovalbumin (OVA)-induced asthma was used to screen GSNOR inhibitors for efficacy against methacholine (MCh)-induced bronchoconstriction/airway hyper-responsiveness. This is a widely used and well characterized model that presents with an acute, allergic asthma phenotype with similarities to human asthma. Efficacy of GSNOR inhibitors was assessed using a protocol in which GSNOR inhibitors were administered after OVA sensitization and airway challenge, and prior to challenge with MCh. Bronchoconstriction in response to challenge with increasing doses of MCh was assessed using whole body plethysmography (Penh; Buxco). The amount of eosinophil infiltrate into the bronchoaveolar lavage fluid (BALF) was also determined as a measure of lung inflammation. The effects of GSNOR inhibitors were compared to vehicles and to Combivent (inhaled; IH) as the positive control.
OVA (500 μg/ml) in PBS was mixed with equal volumes of 10% (w/v) aluminum potassium sulfate in distilled water and incubated for 60 min. at room temperature after adjustment to pH 6.5 using 10 N NaOH. After centrifugation at 750×g for 5 min, the OVA/alum pellet was resuspended to the original volume in distilled water. Mice received an intraperitoneal (IP) injection of 100 μg OVA (0.2 mL of 500 μg/mL in normal saline) complexed with alum on day 0. Mice were anesthetized by IP injection of a 0.2-mL mixture of ketamine and xylazine (0.44 and 6.3 mg/mL, respectively) in normal saline and were placed on a board in the supine position. Two hundred fifty micrograms (100 μl of a 2.5 mg/ml) of OVA (on day 8) and 125 μg (50 μl of 2.5 mg/ml) OVA (on days 15, 18, and 21) were placed on the back of the tongue of each animal.
In vivo airway responsiveness to methacholine was measured 24 h after the last OVA challenge in conscious, freely moving, spontaneously breathing mice with whole body plethysmography using a Buxco chamber (Wilmington, N.C.). Mice were challenged with aerosolized saline or increasing doses of methacholine (5, 20, and 50 mg/mL) generated by an ultrasonic nebulizer for 2 min. The degree of bronchoconstriction was expressed as enhanced pause (Penh), a calculated dimensionless value, which correlates with the measurement of airway resistance, impedance, and intrapleural pressure in the same mouse. Penh readings were taken and averaged for 4 min. after each nebulization challenge. Penh is calculated as follows: Penh=[(Te/Tr−1)×(PEF/PIF)], where Te is expiration time, Tr is relaxation time, PEF is peak expiratory flow, and PIF is peak inspiratory flow×0.67 coefficient. The time for the box pressure to change from a maximum to a user-defined percentage of the maximum represents the relaxation time. The Tr measurement begins at the maximum box pressure and ends at 40%.
After measurement of airway hyper-reactivity, the mice were exsanguinated by cardiac puncture, and then BALF was collected from either both lungs or from the right lung after tying off the left lung at the mainstem bronchus. Total BALF cells were counted from a 0.05 mL aliquot, and the remaining fluid was centrifuged at 200×g for 10 min at 4° C. Cell pellets were resuspended in saline containing 10% BSA with smears made on glass slides. Eosinophils were stained for 5 min. with 0.05% aqueous eosin and 5% acetone in distilled water, rinsed with distilled water, and counterstained with 0.07% methylene blue. Alternatively, eosinophils and other leukocytes were stained with DiffQuik.
GSNOR inhibitors were reconstituted in phosphate buffered saline (PBS), pH 7.4, or 0.5% w/v carboxy methylcellulose at concentrations ranging from 0.00005 to 3 mg/mL. GSNOR inhibitors were administered to mice (10 mL/kg) as a single dose or multiple dose either intravenously (IV) or orally via gavage. Dosing was performed from 30 min. to 72 h prior to MCh challenge. Effects of GSNOR inhibitors were compared to vehicle dosed in the same manner.
Combivent was used as the positive control in all studies. […]

Assay [2] relates to cigarette smoke-induced COPD. Kind of assay: Subchronic (11 day) cigarette smoke exposure COPD model. It counts as in vivo, mouse. The following applies: subchronic 11 day model. Here is the method: Infiltration of inflammatory cells into the bronchoalveolar lavage fluid (BALF) and BALF levels of chemokines involved in inflammation and tissue turnover/repair were measured to assess the influences of GSNOR inhibitors on some of the early events associated with the initiation and progression of COPD. […] In animal models, changes in lung pathology are only evident after extended (several months) duration of exposure to cigarette smoke, thus making chronic models prohibitive as effective screening tools. […] The key roles of inflammation in the initiation and progression of COPD, make these short duration models relevant for initial tests of efficacy of novel therapeutics. Female C57Bl/6 mice (N=10 per group) were exposed to cigarette smoke generated from Marlboro 100 cigarettes without filters. Exposure times were 25 min. on study day 1, 35 min. on study day 2, and 45 min. on study days 3 to 11. GSNOR inhibitors were administered one hour prior to smoke exposure on each day. GSNOR inhibitors were dosed orally at 1 to 10 mg/kg/day for 11 days. […] The effect of GSNOR inhibitors were compared to vehicle treated controls and expressed as percent inhibition of the cigarette smoke induced increases in BALF cell numbers. Roflumilast was used as the positive control for the study and was dosed at 5 mg/kg/day. A group of naïve mice (N=10) was exposed to air and dosed with vehicle as a negative control for the study.

Setting [3] is: single oral dose of 10 mg/kg at 24 h prior to assessment.

The values below come from US20140094465A1, “Compounds as S-Nitrosoglutathione Reductase Inhibitors” (N30 PHARMACEUTICALS, INC., priority 2011, published 2014).

For the compound `O=c1c(-c2ccc(-c3nnn[nH]3)cc2)c(C(F)(F)F)oc2cc(O)ccc12` [IV-23], the “decrease of AUC for Penh” value in assay [1] (single IV dose of 10 mg/kg at 24 h prior to assessment) is recorded as 39 % of vehicle control.
As to `O=c1[nH]c(-c2ccc(-c3c(C(F)(F)F)oc4cc(O)ccc4c3=O)cc2)no1` [IV-31], in assay [1] (setting [3]), the “decrease of AUC for Penh” value was 18 % of vehicle control and the “decrease of eosinophil infiltration into BALF” value is 82 % of vehicle control.
As to `O=C(O)c1ccc(-c2ccc3cc(O)ccc3c2)c(F)c1` [III-2], the “decrease of eosinophil infiltration in BAL” value (shortened to “decrease … in BAL”) in assay [1] is reported as 44 % of vehicle control.
`O=c1c2ccc(O)cc2oc(C(F)(F)F)c1[C@H]1CC[C@H](C(=O)O)CC1` [IV-25]: in assay [1] (setting [3]), the “decrease of AUC for Penh” value was 43 % of vehicle control and the “decrease of eosinophil infiltration into BALF” value is on record as 42 % of vehicle control. Moreover, the “decrease … in BAL” value in assay [1] is on record as 12 % of vehicle control. In addition, in assay [2] (oral 10 mg/kg/day for 11 days), the “inhibition of smoke-induced increase in eosinophils in BALF” value stood at 57%, the “inhibition of smoke-induced increase in lymphocytes in BALF” value is 24%, the “inhibition of smoke-induced increase in macrophages in BALF” value is on record as 28% and the “inhibition of smoke-induced increase in neutrophils in BALF” value was determined as 25%. The “inhibition of smoke-induced increase in total cells in BALF” value in assay [2] (oral 10 mg/kg/day for 11 days) is given as 26%.
Turning to `O=C(O)c1ccc(-c2c(C(F)(F)F)oc3cc(O)ccc3c2=O)c(F)c1` [IV-38], in assay [1], the “decrease … in BAL” value is given as 36 % of vehicle control. Further, in assay [2] (oral 1 mg/kg/day for 11 days), the “inhibition of smoke-induced increase in lymphocytes in BAL” value is 62%, the “inhibition of smoke-induced increase in macrophages in BAL” value amounted to 44%, the “inhibition of smoke-induced increase in neutrophils in BAL” value was 68% and the “inhibition of smoke-induced increase in total cells in BAL” value stood at 53%. For the same compound, the “effects compared with roflumilast” value in assay [2] (roflumilast 5 mg/kg/day) is “comparable to those of roflumilast”.
